Test system: cerebral vessels
Method: A person with a history of hypertension experiences a first stroke in the left middle cerebral artery resulting in deficits in the right hand, leg, and some deficits in motor speech. These are the symptoms upon presentation in the neurological clinic. Transcranial Doppler analysis of all cerebral vessels is performed in addition to analyzing the common carotid artery and the internal carotid artery.
The physician considers prescription of Plavix together with a calcium channel blocker. Transcranial Doppler analysis was performed at monthly intervals. […] The physician subsequently administers a higher dose. Again, transcranial Doppler analysis is performed on all cerebral vessels.

COC(=O)[C@H](c1ccccc1Cl)N1CCc2sccc2C1 [Plavix]
changes in the individual cerebral vessels (transcranial Doppler) (person after first stroke, Plavix +/− calcium channel blocker, initial dose, analysis at monthly intervals): no effect on the cerebral vessels
auto-regulation curve (transcranial Doppler) (same patient, higher dose): left-shifts toward normal
pulsatility index of the vessel studied (transcranial Doppler) (same patient, higher dose): decreases

— patent US6692443B2, “Systems and methods for investigating blood flow” (New Health Sciences, Inc., priority 2000, dated 2004)
